Read-outs that look alike come from different tables or passages of the source. Values belong to the molecule of their own block, whether it stands above or below them.
Columns and labels:
palmitoylated ER66 = assay: Native gel electrophoresis / Western blot of palmitoylated ER66 in eukaryotic cell-free expression system; assay type: biochemical, human; conditions: 2-bromopalmitate 100 µM
palmitoylated ER46 = assay: Native gel electrophoresis / Western blot of palmitoylated ER46 in eukaryotic cell-free expression system; assay type: biochemical, human; conditions: 2-bromopalmitate 100 µM
ER36 = molecular target: ER36; parameters: method as in PMID 20197310; conditions: previous studies; cited from earlier work
human ER66 = molecular target: T1, human ER66 (Homo sapiens, UniProt P03372); assay: Competitive [3H]-17β-estradiol ligand binding assay, ER66
T1 sequence (P03372 1-595): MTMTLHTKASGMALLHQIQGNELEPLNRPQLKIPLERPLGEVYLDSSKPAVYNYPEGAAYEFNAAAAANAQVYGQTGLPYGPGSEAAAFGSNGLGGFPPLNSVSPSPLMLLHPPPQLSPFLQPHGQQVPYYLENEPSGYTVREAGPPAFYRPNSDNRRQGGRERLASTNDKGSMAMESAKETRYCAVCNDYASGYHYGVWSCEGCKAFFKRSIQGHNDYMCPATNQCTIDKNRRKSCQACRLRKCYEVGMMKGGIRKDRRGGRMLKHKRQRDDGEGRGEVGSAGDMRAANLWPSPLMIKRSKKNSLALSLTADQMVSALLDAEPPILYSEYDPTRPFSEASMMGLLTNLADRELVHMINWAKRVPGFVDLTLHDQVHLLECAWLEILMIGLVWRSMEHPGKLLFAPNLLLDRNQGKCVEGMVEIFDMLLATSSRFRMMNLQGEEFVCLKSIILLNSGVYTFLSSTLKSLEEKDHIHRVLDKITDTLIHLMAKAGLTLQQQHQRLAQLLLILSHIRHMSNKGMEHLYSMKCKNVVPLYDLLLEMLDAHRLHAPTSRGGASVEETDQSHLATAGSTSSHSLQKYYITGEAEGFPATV

human ER46 = molecular target: T2, human ER46 (Homo sapiens, UniProt P03372); assay: Competitive [3H]-17β-estradiol ligand binding assay, ER46
T2 sequence (P03372 1-422 isoform P03372-3): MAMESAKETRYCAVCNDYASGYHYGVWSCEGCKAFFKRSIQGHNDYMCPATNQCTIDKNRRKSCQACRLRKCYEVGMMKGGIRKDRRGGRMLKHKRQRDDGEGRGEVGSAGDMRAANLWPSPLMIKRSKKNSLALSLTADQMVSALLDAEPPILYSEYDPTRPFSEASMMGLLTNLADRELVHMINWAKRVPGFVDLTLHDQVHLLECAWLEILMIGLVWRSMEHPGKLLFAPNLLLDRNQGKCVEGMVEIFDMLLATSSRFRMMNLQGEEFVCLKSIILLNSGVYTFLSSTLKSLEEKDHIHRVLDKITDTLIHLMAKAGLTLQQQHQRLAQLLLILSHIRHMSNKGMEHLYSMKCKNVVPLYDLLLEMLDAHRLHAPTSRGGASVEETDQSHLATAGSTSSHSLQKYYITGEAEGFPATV

ERα over ERβ = conditions: cited from earlier work
[1] = ratio of IC50 values of 17β-estradiol and compound, 17β-estradiol set at 100

Molecule: CCCCCCCCCCCCCCC(Br)C(=O)O (stereo not drawn) [2-bromopalmitate, 2-bromohexadecanoic acid]
- expression of palmitoylated ER66 (palmitoylated ER66): abolished
- expression of palmitoylated ER46 (palmitoylated ER46): abolished

Molecule: C[C@]12CC[C@@H]3c4ccc(O)cc4CC[C@H]3[C@@H]1CC[C@@H]2O [17β-estradiol]
- Kd (ER36): 2.2 nM

Molecule: O=c1c(-c2ccc(O)cc2)coc2cc(O)ccc12 [Daidzein, daidzein]
- RBA ER66 (human ER66; [1]): 0.003
- RBA ER46 (human ER46; [1]): 0.002

Molecule: methyl-piperidino-pyrazole dihydrochloride [MPP]
- selectivity for ERα over ERβ (ERα over ERβ): 200 fold
- RBA ER66 (human ER66): 0.305
- RBA ER46 (human ER46): 0.498
- higher affinity for ER46 when compared to ICI 182,780 (human ER46): four-fold

Continued, values first:

- IC50 (human ER66): 1330 nM
- RBA ER66 (human ER66; [1]): 0.003
- IC50 (human ER46): 3330 nM
- RBA ER46 (human ER46): 0.001
Molecule: Oc1ccc(-c2c(-c3ccccc3)nn3c(C(F)(F)F)cc(C(F)(F)F)nc23)cc1 [PHTPP, 4-[2-phenyl-5,7-bis(trifluoromethyl)pyrazolo[1,5-a]pyrimidin-3-yl]phenol]

- RBA ER66 (human ER66; [1]): 42052
- RBA ER46 (human ER46; [1]): 23016
Molecule: CCCc1c(-c2ccc(O)cc2)nn(-c2ccc(O)cc2)c1-c1ccc(O)cc1 [PPT, propylpyrazole triol]

From paper PMC3639985, “Differential Ligand Binding Affinities of Human Estrogen Receptor-α Isoforms” (PLoS ONE, 2013)
